Measured values: patent US7635693B2, “Methods for preventing and treating cancer using N-thiolated β-lactam compounds and analogs thereof” (University of South Florida, priority 2002, dated 2009)
Read-outs that look alike come from different tables or passages of the source.

Tests used:
cytochrome C = conditions: Jurkat T cells, 50 μM, 2 to 4 hours
Experimental: At each time point, cells were washed twice with PBS, resuspended in a hypotonic buffer containing 20 mM HEPES (pH 7.5), 1.5 mM MgCl2, 5 mM KCl and 1 mM DTT, and incubated on ice for 10 min. The cells are dounced 30 times, and the lysate is centrifuged at 2,000×g for 10 min. The supernatant is collected and centrifuged again at the same condition. The resulting supernatant is then centrifuged at 20,500×g for 30 min, followed by collection of both the supernatant (cytosol) and pellet fractions. The pellet is washed twice with a buffer containing 210 mM mannitol, 70 mM sucrose, 5 mM Tris-HCl (pH 7.5) and 1 mM EDTA, and resuspended in the lysis buffer as the mitochondria fraction.

Jurkat T cells [1] = conditions: for inhibition of 3H-thymidine incorporation: Jurkat T cells
Experimental: Incorporation of ^3H-thymidine into cells was measured as disclosed in Smith D M and Dou Q P, 2001, Green tea polyphenol epigallocatechin inhibits DNA replication and consequently induces leukemia cell apoptosis. Int J Mol Med 7:645-52. Jurkat T cells are pre-treated with a selected lactam for the indicated number of hours, followed by co-incubation with 2 μl/ml of [methyl-^3H]-thymidine [80 Ci (1.5 TBq)/mMol] at 37° C. for 2 hours. After harvesting, the cell pellet is washed with PBS, resuspended in 0.5 ml of PBS and collected on a glass microfiber filter. The filter is then washed with 5 ml/filter of PBS, followed by 5 ml/filter of ice-cold 0.1N NaOH and 5 ml/filter of ethanol. The filters containing fixed DNA are dried, and the remaining radioactivity is measured on a scintillation counter.

VA-13 cells [2] = conditions: detached VA-13 cells, 50 μM
Experimental: (§1) (FIG. 19A) MTT assay. (FIG. 19B) Cell-free caspase-9 activity assay. A protein extract (20 μg) is incubated with 20 μM Ac-LEHD-AFC (the specific caspase-9 substrate) in a 96-well plate at 37° C. for 2 h. After incubation, the liberated florescent AFC groups are measured by Wallac Victor 1420 Multilabel counter with 405/535 nm filters. […] Both intact and active forms of caspase-3 are indicated. […] Both detached and attached populations of Va-13 or WI-38 cells are collected, and used for nuclear staining assay with DNA staining dye Hoechst 33342.
(§2) To assay nuclear morphology, both the detached or remaining attached solid tumor cells were washed with PBS, fixed with 70% ethanol for 1 hour, and stained with Hoechst 33342 (50 μM) for 30 minutes. The nuclear morphology of cells was visualized by a fluorescence microscope.

WI-38 cells [3] = conditions: 50 μM
Experimental: as §1, §2

VA-13 cells [4] = conditions: 50 μM
Experimental: as §1
(§3) An MTT assay was performed in a 96-well plate, which measures cellular mitochondrial function and thereby cytotoxicity.

WI-38 cells [5] = conditions: 50 μM; remark: listed apart in the source
Experimental: as §1, §3

caspase-9 = conditions: Jurkat T cells
Experimental: (§4) J. Biol Chem 276:13322-30 with some modifications. Briefly, a prepared protein extract (20 μg) is incubated in a buffer containing 50 mM Tris/pH 8.0 along with each respective caspase substrate at 20 μM in a 96 well plate. The reaction mixture is incubated at 37° C. for 2 h. After incubation, the liberated fluorescent AMC or AFC groups are measured by a Wallac Victor 1420 Multilabel counter (Turku, Finland) with 355/460 […] and 405/535 nm filters, respectively.

caspase-8 = conditions: Jurkat T cells; for increase of caspase-8 levels over untreated cells: 8 hours
Experimental: as §4

PARP = conditions: YT cells
Experimental: Human Jurkat T cells and human prostate cancer LNCaP cells were cultured in RPMI 1640 medium, supplemented with 10% fetal bovine serum, 100 units/ml penicillin, and 100 μg/ml streptomycin. Human YT cells were cultured in RPMI 1640 medium supplemented with 1 mM MEM sodium pyruvate solution, 0.1 mM MEM non-essential amino acids solution, 10% fetal bovine serum, 100 units/ml penicillin, and 100 μg/ml streptomycin. All cell lines were maintained at 37° C. in a humidified incubator with an atmosphere of 5% CO2. […] Briefly, cells were harvested, washed with PBS and homogenized in a lysis buffer (50 mM Tris-HCl, pH 8.0, 5 mM EDTA, 150 mM NaCl, 0.5% NP-40, 0.5 mM phenylmethylsulfonyl fluoride, and 0.5 mM dithiothreitol) for 30 min at 4° C. Afterwards, the lysates were centrifuged at 12000×g for 15 min at 4° C. and the supernatants collected as whole-cell extracts. Equal amounts of protein extract (60 μg) were resolved by SDS-polyacrylamide gel electrophoresis and transferred to a nitrocellulose membrane (Schleicher & Schuell, Keene, N. H.) using a Semi-Dry Transfer System (Bio-Rad, Hercules, Calif.). The enhanced chemiluminescence Western blot analysis was then performed using specific antibodies to the proteins of interest.

Jurkat T cells [6] = experiment: TUNEL assay (DNA strand breaks), Jurkat T cells; assay type: cell-based, human; conditions: 50 μM
Experimental: Terminal deoxynucleotidyl transferase-mediated UTP nick end labeling (TUNEL) was performed to determine the extent of DNA strand breaks. TUNEL assay was performed with an APO-Direct kit per the manufacturer's instructions. In brief, cells are fixed in 1% paraformaldehyde and ethanol at […] overnight and then permeabilized with Proteinase K. After permeabilization, Fluorescein conjugated dNTP's and TdT enzyme (Terminal Deoxynucleotidyl Transferase) are added to the cells. The TdT enzyme is then able to label free ends of DNA with Fluorescein conjugated dNTPs that could then be detected by flow cytometry.
The assay was performed following manufacturer's instruction using the APO-Direct kit. In brief, the harvested cells were fixed in 1% paraformaldehyde for 15 min on ice, washed with PBS, and then fixed again in 70% ethanol at −20° C. overnight. The cells were then incubated in DNA labeling solution (containing terminal deoxynucleotidyl transferase (TdT) enzyme, fluorescein-conjugated dUTP and reaction buffer) for 90 min at 37° C. After removing the DNA labeling solution by rinsing cells with Rinsing Buffer, the cells were incubated with the Propidium Iodide/RNase A solution, incubated for 30 min at room temperature in the dark, and then analyzed by flow cytometry within 3 h of staining.

## COC1C(=O)N(SC)C1c1ccccc1Cl (racemic) [lactam 1]
Cytochrome C
  levels of cytosolic cytochrome C: significantly increased
  levels of mitochondrial cytochrome C: decreased
Jurkat T cells [1]; 20 μM, 2 h pre-incubation + 2 hour co-incubation
  inhibition of 3H-thymidine incorporation: 20%
Jurkat T cells [1]; 30 μM, 2 h pre-incubation + 2 hour co-incubation
  inhibition of 3H-thymidine incorporation: 45%
Jurkat T cells [1]; 40 μM, 2 h pre-incubation + 2 hour co-incubation
  inhibition of 3H-thymidine incorporation: 90%
Jurkat T cells [1]; 50 μM, added at the same time as 3H-thymidine, co-incubated 2 h
  inhibition of 3H-thymidine incorporation: ~70%
Jurkat T cells [1]; 50 μM, pre-incubation 2 to 8 h, then 2 hour with 3H-thymidine
  inhibition of 3H-thymidine incorporation: 95%
Jurkat T cells [1]; 50 or 60 μM, 2 h pre-incubation + 2 hour co-incubation
  inhibition of 3H-thymidine incorporation: ~100%
Jurkat T cells [1]; read-out: half-maximal inhibition value for incorporation of 3H-thymidine (IC50), intact Jurkat cells, total treatment 4 h
  IC50: 32 µM
VA-13 cells [2]
  nuclear morphology (Hoechst 33342): apoptotic nuclear condensation and fragmentation
WI-38 cells [3]
  nuclear morphology (Hoechst 33342): remained attached with normal nuclei
VA-13 cells [4]; 6 or 24 hours
  cell growth (MTT): completely inhibited growth
VA-13 cells [4]; 120 hours
  viable cells: no viable VA-13 cells
WI-38 cells [5]; 24 hours
  cell growth (MTT): slightly inhibited the cell growth
WI-38 cells [5]; 120 hours
  cell population: doubled
caspase-9; 50 μM
  time at which caspase-9 activity is first detected: 4 h
caspase-9; 8 hours, higher concentrations of lactam 1
  caspase-9 activity: Higher levels
caspase-8; 50 μM
  time at which caspase-8 activity was detected: 2 h
  time of maximal caspase-8 activity: 6 h
  increase of caspase-8 levels over untreated cells: 5 fold
caspase-8; 30 to 40 μM
  increase of caspase-8 levels over untreated cells: 2 fold
PARP; 30 μM, 3, 6, or 24 h
  PARP cleavage: no PARP cleavage was observed
PARP; at even 50 μM, 24 h
  PARP cleavage: no PARP cleavage was detectable
Jurkat T cells [6]; 1 hour
  DNA strand breaks (TUNEL): did not induce DNA strand breaks
Jurkat T cells [6]; 2 hour
  cell population positive for DNA strand breaks (TUNEL): more than half of the cell population
Jurkat T cells [6]; 24 h
  TUNEL-positive cells: 66%
